Data on seven molecules can be found in ChEMBL document CHEMBL4130502, “Discovery of thienopyrrolotriazine derivatives to protect mitochondrial function against Aβ-induced neurotoxicity” (Eur J Med Chem, 2017).

Data set [1] deals with Translocator protein (Mus musculus) (UniProt P50637). The experiment in a line: Inhibition of TSPO in mouse HT22 cells assessed as recovery of ATP production at 5 uM preincubated for 10 mins followed by amyloid beta (1 to 42) stimulation and measured after 7 hrs by luciferase based assay relative to control. In kind it is cell-based. Also on record: scale not given: the % may be the effect or the level left.

Data set [2] concerns the target CYP2D6 (Homo sapiens, UniProt P10635). The experiment in a line: Inhibition of human CYP2D6 assessed as remaining enzyme activity at 10 uM preincubated for 5 mins followed by Vivid CYP substrate addition measured after 20 mins by fluorescence assay relative to control. It is filed as ADME. Particulars: probe Vivid CYP substrate, read-out: Activity.
The target in data set [3] is CYP2C9 (Homo sapiens, UniProt P11712). The experiment in a line: Inhibition of human CYP2C9 assessed as remaining enzyme activity at 10 uM preincubated for 5 mins followed by Vivid CYP substrate addition measured after 20 mins by fluorescence assay relative to control. In kind it is ADME. Particulars: probe Vivid CYP substrate, read-out: Activity.
In data set [4] the target is Translocator protein (Mus musculus) (UniProt P50637). Kind of data set: Inhibition of TSPO in mouse HT22 cells assessed as reduction in amyloid beta (1 to 42) (unknown origin) induced mitochondrial permeability transition pore formation by measuring increase in green to red fluorescence ratio at 5 uM pretreated for 10 mins followed by amyloid beta (1 to 42) stimulation and measured at 1 hr interval for 3 hrs by JC-1 dye based fluorescence assay relative to control. It is filed as cell-based. The arrangement: scale not given: the % may be the effect or the level left.

In data set [5] the target is CYP3A4 (Homo sapiens, UniProt P08684). The experiment in a line: Inhibition of human CYP3A4 assessed as remaining enzyme activity at 10 uM preincubated for 5 mins followed by Vivid CYP substrate addition measured after 20 mins by fluorescence assay relative to control. It is filed as ADME. As to conditions: probe Vivid CYP substrate, read-out: Activity.
For data set [6], the target named is CYP2C19 (Homo sapiens, UniProt P33261). The experiment in a line: Inhibition of human CYP2C19 assessed as remaining enzyme activity at 10 uM preincubated for 5 mins followed by Vivid CYP substrate addition measured after 20 mins by fluorescence assay relative to control. In kind it is ADME. As to conditions: probe Vivid CYP substrate, read-out: Activity.
Data set [7] in a line: Cytotoxicity against mouse HT22 cells as cell viability at 5 uM after 24 hrs by MTT assay relative to control. It is filed as cell-based, HT-22. As to conditions: read-out: Activity. A general note: Formazan colour is commonly taken as a measure of viable cells.
The target in data set [8] is Translocator protein (Rattus norvegicus, UniProt P16257). The experiment in a line: Displacement of [3H]PK11195 from TSPO in Sprague-Dawley rat cerebral cortex membranes after 60 mins by liquid scintillation counting analysis. Also on record: species or system Membrane. Background: In a radioligand displacement assay an active substance lowers the binding of a labelled ligand.

Data set [9] addresses T1, CYP1A2 (Homo sapiens, UniProt P05177).
T1 sequence (P05177 whole entry): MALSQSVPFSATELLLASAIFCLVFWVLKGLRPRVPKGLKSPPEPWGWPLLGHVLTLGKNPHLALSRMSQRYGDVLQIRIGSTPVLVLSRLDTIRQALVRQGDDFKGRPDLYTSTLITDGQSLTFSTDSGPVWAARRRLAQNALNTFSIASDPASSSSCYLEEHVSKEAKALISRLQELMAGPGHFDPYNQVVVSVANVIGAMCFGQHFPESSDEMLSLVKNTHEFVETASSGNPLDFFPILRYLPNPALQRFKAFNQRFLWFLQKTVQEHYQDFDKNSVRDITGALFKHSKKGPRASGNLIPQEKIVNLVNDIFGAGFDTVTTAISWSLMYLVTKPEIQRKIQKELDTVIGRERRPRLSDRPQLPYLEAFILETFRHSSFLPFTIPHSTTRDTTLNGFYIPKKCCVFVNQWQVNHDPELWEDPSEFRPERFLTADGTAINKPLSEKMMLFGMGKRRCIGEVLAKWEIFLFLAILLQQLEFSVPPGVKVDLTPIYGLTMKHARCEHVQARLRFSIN
Kind of data set: Inhibition of human CYP1A2 assessed as remaining enzyme activity at 10 uM preincubated for 5 mins followed by Vivid CYP substrate addition measured after 20 mins by fluorescence assay relative to control. In kind it is ADME. As to conditions: probe Vivid CYP substrate, read-out: Activity.

The target of data set [10] is Translocator protein (Homo sapiens, UniProt P30536). Kind of data set: Binding affinity to C-terminal DDK-tagged human recombinant full-length TSPO expressed in HEK293 cells by SPR assay. (Surface plasmon resonance follows binding to a sensor surface in real time, without labels.)
A short description of data set [11]: Stability in dog liver microsomes assessed as parent compound remaining at 1 uM preincubated for 5 mins followed by NADPH addition measured after 30 mins by LC-MS/MS analysis. In kind it is ADME, Canis lupus familiaris, microsome. Particulars: read-out: Stability.
Data set [12] is described as follows: Stability in human plasma assessed as parent compound remaining at 10 uM after 120 mins by LC-MS/MS analysis. It is filed as ADME, cell-free. Particulars: read-out: Stability.
Data set [13] in a line: Stability in human plasma assessed as parent compound remaining at 10 uM after 30 mins by LC-MS/MS analysis. It is filed as ADME, cell-free. Particulars: read-out: Stability.
A short description of data set [14]: Stability in mouse liver microsomes assessed as parent compound remaining at 1 uM preincubated for 5 mins followed by NADPH addition measured after 30 mins by LC-MS/MS analysis. In kind it is ADME, microsome. As to conditions: read-out: Stability.
The nature of data set [15]: Stability in human liver microsomes assessed as parent compound remaining at 1 uM preincubated for 5 mins followed by NADPH addition measured after 30 mins by LC-MS/MS analysis. In kind it is ADME, microsome. As to conditions: read-out: Stability.
A short description of data set [16]: Stability in rat liver microsomes assessed as parent compound remaining at 1 uM preincubated for 5 mins followed by NADPH addition measured after 30 mins by LC-MS/MS analysis. It is filed as ADME, microsome. Particulars: read-out: Stability.
Data set [17] can be described thus: Stability in rat plasma assessed as parent compound remaining at 10 uM after 120 mins by LC-MS/MS analysis. It is filed as ADME, cell-free. As to conditions: read-out: Stability.
A short description of data set [18]: Stability in rat plasma assessed as parent compound remaining at 10 uM after 30 mins by LC-MS/MS analysis. Particulars: read-out: Stability. It is filed as ADME, cell-free.

Sequence of CYP3A4 (P08684 whole entry): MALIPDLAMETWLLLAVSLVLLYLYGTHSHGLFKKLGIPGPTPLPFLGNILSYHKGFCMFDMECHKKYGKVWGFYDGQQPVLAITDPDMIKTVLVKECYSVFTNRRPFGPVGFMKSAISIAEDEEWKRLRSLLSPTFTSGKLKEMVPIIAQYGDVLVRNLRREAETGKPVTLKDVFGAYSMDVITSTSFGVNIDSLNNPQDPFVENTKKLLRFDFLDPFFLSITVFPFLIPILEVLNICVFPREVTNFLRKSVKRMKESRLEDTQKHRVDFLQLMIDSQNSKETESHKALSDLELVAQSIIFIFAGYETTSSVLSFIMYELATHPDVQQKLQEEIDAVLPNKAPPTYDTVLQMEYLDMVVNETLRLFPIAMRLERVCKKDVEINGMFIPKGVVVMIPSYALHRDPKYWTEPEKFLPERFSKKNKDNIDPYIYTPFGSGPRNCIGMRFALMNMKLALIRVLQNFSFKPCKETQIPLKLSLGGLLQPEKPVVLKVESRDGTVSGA
Sequence of CYP2C9 (P11712 whole entry): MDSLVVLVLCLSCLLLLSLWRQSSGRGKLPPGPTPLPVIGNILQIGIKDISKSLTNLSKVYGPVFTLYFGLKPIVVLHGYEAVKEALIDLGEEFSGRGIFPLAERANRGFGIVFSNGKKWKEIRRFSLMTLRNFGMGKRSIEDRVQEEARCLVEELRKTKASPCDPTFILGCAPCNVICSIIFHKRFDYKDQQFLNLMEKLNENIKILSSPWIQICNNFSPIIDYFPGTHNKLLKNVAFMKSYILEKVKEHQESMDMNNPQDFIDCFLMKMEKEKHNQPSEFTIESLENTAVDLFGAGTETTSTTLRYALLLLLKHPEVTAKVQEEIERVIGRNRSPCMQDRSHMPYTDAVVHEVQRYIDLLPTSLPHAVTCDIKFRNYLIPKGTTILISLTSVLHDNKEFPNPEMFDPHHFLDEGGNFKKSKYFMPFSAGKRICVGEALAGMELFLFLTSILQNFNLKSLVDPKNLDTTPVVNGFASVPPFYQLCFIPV
Sequence of CYP2C19 (P33261 whole entry): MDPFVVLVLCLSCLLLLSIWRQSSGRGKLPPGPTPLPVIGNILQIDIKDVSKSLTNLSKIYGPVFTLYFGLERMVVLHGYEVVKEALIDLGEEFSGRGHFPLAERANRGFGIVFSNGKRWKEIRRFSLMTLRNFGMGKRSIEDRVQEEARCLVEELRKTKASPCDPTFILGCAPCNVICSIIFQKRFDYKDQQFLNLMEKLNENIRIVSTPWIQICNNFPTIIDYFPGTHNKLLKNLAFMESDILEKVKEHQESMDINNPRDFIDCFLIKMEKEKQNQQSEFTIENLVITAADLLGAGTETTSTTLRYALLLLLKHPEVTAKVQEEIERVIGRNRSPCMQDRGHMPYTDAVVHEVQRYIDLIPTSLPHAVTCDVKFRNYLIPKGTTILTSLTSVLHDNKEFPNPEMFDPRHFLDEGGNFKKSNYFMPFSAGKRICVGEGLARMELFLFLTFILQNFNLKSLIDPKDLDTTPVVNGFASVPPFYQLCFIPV
Sequence of Translocator protein (Rattus norvegicus, UniProt P16257) (P16257 whole entry, looked up): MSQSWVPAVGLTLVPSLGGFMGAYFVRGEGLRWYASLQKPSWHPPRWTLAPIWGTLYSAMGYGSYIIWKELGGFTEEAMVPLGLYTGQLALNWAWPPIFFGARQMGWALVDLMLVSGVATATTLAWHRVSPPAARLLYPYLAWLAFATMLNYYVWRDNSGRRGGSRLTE
Sequence of CYP2D6 (P10635 whole entry): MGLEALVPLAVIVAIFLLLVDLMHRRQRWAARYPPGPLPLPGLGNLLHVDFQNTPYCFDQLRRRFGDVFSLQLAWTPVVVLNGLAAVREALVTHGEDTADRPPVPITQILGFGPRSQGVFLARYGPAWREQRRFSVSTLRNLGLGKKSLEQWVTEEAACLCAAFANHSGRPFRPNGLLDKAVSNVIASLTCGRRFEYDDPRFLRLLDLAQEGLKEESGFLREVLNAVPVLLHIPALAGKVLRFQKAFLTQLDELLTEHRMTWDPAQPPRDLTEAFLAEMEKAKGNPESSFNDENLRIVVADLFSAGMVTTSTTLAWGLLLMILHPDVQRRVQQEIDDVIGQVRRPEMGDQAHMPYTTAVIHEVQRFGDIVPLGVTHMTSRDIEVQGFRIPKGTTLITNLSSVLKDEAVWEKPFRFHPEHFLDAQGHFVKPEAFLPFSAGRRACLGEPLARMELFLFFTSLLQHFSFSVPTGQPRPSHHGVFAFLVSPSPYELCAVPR
Sequence of Translocator protein (Mus musculus) (P50637 whole entry, looked up): as the sequence (P16257 whole entry, looked up) above, with S2P, Q3E, I67V, E77D, V110A, M113L, M149V, T168P counted along it
Sequence of Translocator protein (Homo sapiens, UniProt P30536) (P30536 whole entry): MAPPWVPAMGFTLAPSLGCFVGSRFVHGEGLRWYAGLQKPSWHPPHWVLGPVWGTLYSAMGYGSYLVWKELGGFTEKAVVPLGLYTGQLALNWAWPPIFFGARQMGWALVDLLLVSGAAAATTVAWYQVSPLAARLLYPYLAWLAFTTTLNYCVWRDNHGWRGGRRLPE

As usually defined, the IC50 is the midpoint of a concentration-inhibition curve. Take `CCc1nnc(SCC(=O)N2CCN(c3ccccc3)CC2)c2cc3sc(C)cc3n12`: the Activity in [1] was found to be 41%; in data set [4] it was 70%. Also, the activity at 20 min, 10 µM in [2] is 81.7%; in data set [3], 38.8%; in data set [5], 20.6%; in data set [6] it was 20.3%; in data set [9] it was 40.1%. In addition, the viability at 24 h, 5 µM in data set [7] was 99%. In addition, the IC50 in data set [8] is 2220 nM.
For `CCN(Cc1ccccc1)C(=O)CSc1nnc(C)n2c1cc1sc(C)cc12`, the Activity in [1] was 26%; in [4], 66%. Further, the activity at 20 min, 10 µM in data set [2] turned out to be 38.4%; in data set [3], 21.1%; in data set [5], 51.4%; in data set [6], 10.2%; in data set [9], 70.9%. The viability at 24 h, 5 µM in data set [7] came out at 97%. Moreover, the 50% inhibitory concentration (IC50) in data set [8] was determined as 123 nM.
One may read the Kd as the concentration at which binding is half-saturated. On to `CCc1nnc(SCC(=O)N(C)c2ccccc2)c2cc3sccc3n12`, for which, in data set [10], the dissociation constant Kd came out at 39.6 nM. Besides, the remaining at 0.5 h, 1 µM in [11] came out at 5.1%; in [14], 8.2%; in data set [15] it was 5%; in data set [16], 6.4%. The remaining at 2 h, 10 µM stood at 96.8% in [12] and 72.4% in data set [17]. The remaining at 0.5 h, 10 µM in data set [13] was above 100%; in [18] it was 94%. The Activity in [1] is 8%; in data set [4], 46%. Further, the activity at 20 min, 10 µM in [2] was 49.5%; in data set [3], 70.5%; in data set [5], 32.2%; in [6] it was 16.8%; in data set [9], 33.7%. Also, the viability at 24 h, 5 µM in data set [7] worked out at 97%. Besides, the half-inhibitory concentration (IC50) in data set [8] was found to be 24.8 nM.
Regarding `CCc1nnc(SCC(=O)Nc2ccc(OC)c(OC)c2)c2cc3sc(C)cc3n12`, the figures for the Activity in data set [1] and in [4] were 18% and 62%, respectively. Further, the activity at 20 min, 10 µM in [2] came to 54.2%; in data set [3] it was 50%; in data set [5], 44.7%; in data set [6], 30.9%; in [9] it was 65.5%. Moreover, the viability at 24 h, 5 µM in data set [7] was 91%. This molecule also registered a concentration for half-maximal inhibition (IC50) in data set [8] above 10000 nM.
`CCc1nnc(SCC(=O)Nc2ccccc2)c2cc3sc(C)cc3n12`: the Activity in data set [1] was found to be 22%; in [4] it was 61%. Further, the activity at 20 min, 10 µM was found to be 17% in data set [2]; 95.9% in [3]; 34.1% in [5]; 44.1% in data set [6]; 49.2% in data set [9]. Further, in [7], the viability at 24 h, 5 µM was found to be 92%. The IC50 in [8] was determined as 1670 nM.
Consider `Cc1nnc(SCC(=O)N(C)c2ccccc2)c2cc3sccc3n12`, for which the figures for the Activity in data set [1] and in data set [4] were 25% and 56%, respectively. Further, the activity at 20 min, 10 µM in [2] was 48.8%; in data set [3] it was 124%; in data set [5], 41.3%; in [6], 28.8%; in [9], 46.8%. In [7], the viability at 24 h, 5 µM was 99%. Further, the IC50 in data set [8] worked out at 55.1 nM.
Consider `CCc1nnc(SCC(=O)N(C)c2ccccc2)c2cc3sc(C)cc3n12`, for which the equilibrium dissociation constant (Kd) in [10] is 61.2 nM. For the same molecule, the remaining at 0.5 h, 1 µM in data set [11] stood at 9.8%; in data set [14], 12.8%; in data set [15], 8.8%; in data set [16] it was 9%. Also, the remaining at 2 h, 10 µM is 93.6% in [12] and 80.6% in data set [17]. Further, the remaining at 0.5 h, 10 µM in data set [13] was 99.3%; in [18] it was 96.6%. Also, the Activity in data set [1] came to 44%; in [4] it was 61%. Moreover, the activity at 20 min, 10 µM in [2] was determined as 60.4%; in data set [3], 64.8%; in [5], 64.1%; in [6] it was 52.2%; in data set [9], 50.7%. The viability at 24 h, 5 µM in data set [7] stood at 91%. Also, the IC50 in data set [8] stood at 39.9 nM.
